Among the data in ChEMBL document CHEMBL1135414, “Structure-activity relationships at human and rat A2B adenosine receptors of xanthine derivatives substituted at the 1-, 3-, 7-, and 8-positions” (J Med Chem, 2002) are Ki values, retold here.

One test addresses T1, Adenosine receptor A2b (Homo sapiens, UniProt P29275).
T1 sequence (P29275 whole entry): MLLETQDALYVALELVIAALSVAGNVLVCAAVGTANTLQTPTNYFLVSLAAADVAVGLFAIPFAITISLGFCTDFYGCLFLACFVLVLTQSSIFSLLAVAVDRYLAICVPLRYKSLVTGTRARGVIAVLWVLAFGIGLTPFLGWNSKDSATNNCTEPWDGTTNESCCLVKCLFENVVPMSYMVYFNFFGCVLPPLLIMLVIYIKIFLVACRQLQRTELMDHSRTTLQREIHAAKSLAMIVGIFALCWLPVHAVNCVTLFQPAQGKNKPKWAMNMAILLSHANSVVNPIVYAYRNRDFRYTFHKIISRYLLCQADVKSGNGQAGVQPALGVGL
Kind of test: Binding affinity at human Adenosine A2B receptor expressed in HEK293 cells, using [125I]ABOPX as radioligand. In kind it is cell-based.

The target in a further test is Adenosine receptor A2a (Rattus norvegicus, UniProt P30543). Kind of test: Binding affinity at rat Adenosine A2A receptor by [3H]-CGS- 21680 displacement.
Chain of Adenosine receptor A2a (P30543 whole entry): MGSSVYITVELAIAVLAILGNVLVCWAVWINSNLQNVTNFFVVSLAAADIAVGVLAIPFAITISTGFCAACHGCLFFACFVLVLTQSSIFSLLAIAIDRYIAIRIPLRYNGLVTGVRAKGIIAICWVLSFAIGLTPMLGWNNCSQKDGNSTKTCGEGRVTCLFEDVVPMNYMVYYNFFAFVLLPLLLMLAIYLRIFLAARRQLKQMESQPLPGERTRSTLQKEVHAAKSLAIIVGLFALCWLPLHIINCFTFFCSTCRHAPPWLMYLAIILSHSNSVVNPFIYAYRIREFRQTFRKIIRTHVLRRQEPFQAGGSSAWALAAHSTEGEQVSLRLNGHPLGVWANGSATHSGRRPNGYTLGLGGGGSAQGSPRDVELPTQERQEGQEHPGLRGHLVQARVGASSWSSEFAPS
The next test deals with T2, Adenosine receptor A1 (Rattus norvegicus, UniProt P25099).
T2 sequence (P25099 whole entry): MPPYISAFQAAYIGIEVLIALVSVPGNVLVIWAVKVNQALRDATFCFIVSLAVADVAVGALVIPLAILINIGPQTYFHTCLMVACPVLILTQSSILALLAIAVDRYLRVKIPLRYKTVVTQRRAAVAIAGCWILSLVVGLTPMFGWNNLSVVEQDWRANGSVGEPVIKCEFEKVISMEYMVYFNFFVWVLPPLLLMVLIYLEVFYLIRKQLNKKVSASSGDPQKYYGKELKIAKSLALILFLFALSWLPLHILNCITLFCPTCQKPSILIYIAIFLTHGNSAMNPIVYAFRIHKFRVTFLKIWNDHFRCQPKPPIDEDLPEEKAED
Kind of test: Binding affinity of specific [3H]R-PIA binding to rat Adenosine A1 receptor in HEK293 cells. In kind it is cell-based.

Regarding `Cn1c(=O)c2c(ncn2CC(=O)O)n(C)c1=O` [ACEFYLLINE], affinity on Adenosine receptor A2b was put at a Ki of 27.6 µM.
The same measure, in the same setting: the figure for `CC(=O)CCCCn1c(=O)c2c(ncn2C)n(C)c1=O` [PENTOXIFYLLINE] is 5.18 µM.
In the case of `CCn1c(=O)c2[nH]c(-c3ccccc3)nc2n(CC)c1=O`, the Ki (commonly the dissociation constant of the complex between target and ligand, obtained from inhibition or displacement) at Adenosine receptor A2b turned out to be 0.062 µM.
`Cn1c(=O)c2c(ncn2CCO)n(C)c1=O` [ETOFYLLINE] showed a Ki at Adenosine receptor A2b of 17.3 µM.
In the case of `CCn1c(=O)c2nc[nH]c2n(CC)c1=O`, the Ki at Adenosine receptor A2b was found to be 1.77 µM.
Molecule `CC(=O)OCCn1cnc2c1c(=O)n(C)c(=O)n2C` returned a Ki at Adenosine receptor A2b of 23.2 µM.
As for `CCCn1c(=O)c2[nH]c(-c3ccc(O)cc3O)nc2n(CCC)c1=O`, the values for the Ki on Adenosine receptor A2a and at Adenosine receptor A1 were 0.107 µM and 0.22 µM, respectively.
In turn, `Cn1c(=O)c2c(ncn2CCN)n(C)c1=O` returned a Ki at Adenosine receptor A2b of 23.5 µM.
With `COCn1c(=O)c2c(ncn2C)n(C)c1=O`, the Ki at Adenosine receptor A2b was 14 µM.
Turning to `CCn1c(=O)c2nc[nH]c2n(C)c1=O`, the figures for the Ki at Adenosine receptor A2b, on Adenosine receptor A2a and on Adenosine receptor A1 were 1.62 µM, 9.78 µM and 24.7 µM, respectively.
Turning to `Cn1cnc2c1c(=O)n(CC#N)c(=O)n2C`, affinity on Adenosine receptor A2b was put at a Ki of 21.6 µM.
In the case of `CCCn1c(=O)c2nc(-c3cc(O)ccc3O)[nH]c2n(CCC)c1=O`, the Ki at Adenosine receptor A2b was found to be 0.138 µM; at Adenosine receptor A2a, 17.3 µM; on Adenosine receptor A1, 0.00746 µM.
On to `Cn1c(=O)c2[nH]c(-c3ccc([N+](=O)[O-])cc3[N+](=O)[O-])nc2n(C)c1=O`, for which, at Adenosine receptor A2b, the Ki was found to be 15.4 µM.
As for `CCCn1c(=O)c2nc(-c3cc(O)c(OC)c(O)c3)[nH]c2n(CCC)c1=O`, the Ki on Adenosine receptor A2b was 0.0595 µM; at Adenosine receptor A2a, 1.34 µM; on Adenosine receptor A1, 0.0303 µM.
Molecule `COc1ccc(-c2nc3c([nH]2)c(=O)n(C)c(=O)n3C)cc1` had an inhibitory constant (Ki) on Adenosine receptor A2b of 0.394 µM.
`CC(=O)OCCn1c(=O)c2c(ncn2C)n(C)c1=O` came in with a Ki at Adenosine receptor A2b of 8.71 µM.
On to `C#CCn1cnc2c1c(=O)n(C)c(=O)n2C`, for which the inhibition constant Ki on Adenosine receptor A2b is 9.46 µM.
The molecule `Cn1cnc2c1c(=O)n(CC(=O)O)c(=O)n2C` registered a Ki on Adenosine receptor A2b of 23.5 µM.
On Adenosine receptor A2b, `C=CCn1cnc2c1c(=O)n(C)c(=O)n2C` came in with a Ki of 9.49 µM.
Same read-out and setting: the figure for `Cn1c(=O)c2c(ncn2Cc2ccccc2)n(C)c1=O` is 19.4 µM; for `CC(C)CCn1c(=O)c2nc(-c3ccccc3)[nH]c2n(CC(C)C)c1=O` it is 9.89 µM.
Regarding `CC(C)CCn1c(=O)c2[nH]cnc2n(CC(C)C)c1=O`, on Adenosine receptor A2b, the Ki came to 6.24 µM.
With `Cn1c(=O)c2[nH]c(-c3cccc(C(=O)O)c3)nc2n(C)c1=O`, the Ki on Adenosine receptor A2b is 5.53 µM.
In turn, `C#CCn1c(=O)c2c(ncn2C)n(C)c1=O` returned a Ki at Adenosine receptor A2b of 4.13 µM.
Same read-out and setting: to `CCCn1c(=O)c2nc(-c3cnccn3)[nH]c2n(CCC)c1=O` belongs 0.0796 µM.
In the case of `CCCn1c(=O)c2nc(-c3ccc(Cl)cc3OC)[nH]c2n(CCC)c1=O`, at Adenosine receptor A2b, the Ki turned out to be 6.53 µM.
`C#CCn1c(=O)n(C)c(=O)c2c1ncn2C` came in with a Ki on Adenosine receptor A2b of 9.48 µM.
The same measure, in the same setting: the figure for `Cn1c(=O)c2[nH]c(-c3ccccc3)nc2n(C)c1=O` [8-PHENYL THEOPHYLLINE] is 0.415 µM; for `CCCCCCn1c(=O)c2nc[nH]c2n(CCCCCC)c1=O` it is 7.58 µM.
Turning to `Cn1c(=O)c2[nH]c(-c3ccc([N+](=O)[O-])cc3)nc2n(C)c1=O`, at Adenosine receptor A2b, the affinity corresponds to a Ki of 6.94 µM.
On the same count and under the same terms, the figure for `CCCn1c(=O)c2nc(-c3c(F)cccc3F)[nH]c2n(CCC)c1=O` is 0.31 µM.
On to `C=CCn1c(=O)c2c(ncn2C)n(CC=C)c1=O`, for which the affinity on Adenosine receptor A2b, expressed as Ki, was 3.39 µM.
The molecule `CC(=O)Cn1c(=O)c2c(ncn2C)n(C)c1=O` showed an inhibitory constant (Ki) on Adenosine receptor A2b of 20.8 µM.
For `Cn1c(=O)c2[nH]c(-c3ccc(S(=O)(=O)O)cc3)nc2n(C)c1=O`, the Ki at Adenosine receptor A2b was 1.33 µM.
On the same count and under the same terms, the figure for `CC(C)n1c(=O)n(C)c(=O)c2[nH]cnc21` is 4.89 µM; for `Cn1c(=O)c2c(ncn2CC#N)n(C)c1=O` it is 14.5 µM; for `CN(C)c1ccc(-c2nc3c([nH]2)c(=O)n(C)c(=O)n3C)cc1` it is 0.289 µM.
Regarding `Cn1c(=O)c2nc(-c3ccccc3C(=O)O)[nH]c2n(C)c1=O`, the affinity on Adenosine receptor A2b, expressed as Ki, was 11.1 µM.
In the case of `CCCn1c(=O)[nH]c2[nH]c(C3CCCC3)nc2c1=O`, the Ki on Adenosine receptor A1 turned out to be 0.00768 µM.
